Experimental data published in patent US20100210635A1, “RENIN INHIBITORS” (Takeda Pharmaceutical Company Limited, priority 2006, published 2010).
pIC50: −log10 of the molar value.

biological target: T1, Recombinant human renin (Homo sapiens, UniProt P00797); experiment: In vitro enzymatic activity assay of Renin inhibitors (fluorescence, QXL520/HiLyteFluo488 peptide substrate); type: biochemical; conditions: recombinant human renin 3 nM, 1 μM substrate, 37° C., pH 7.4; values given as ranges; read-out: IC50 of Exemplified Compounds Against Renin
T1 construct: isolate the active form (residues 67-406); made in house; host or cells: FreeStyle 293-F cells (transient expression of pcDNA3.1(+)/hREN)
T1 sequence (P00797 67-406): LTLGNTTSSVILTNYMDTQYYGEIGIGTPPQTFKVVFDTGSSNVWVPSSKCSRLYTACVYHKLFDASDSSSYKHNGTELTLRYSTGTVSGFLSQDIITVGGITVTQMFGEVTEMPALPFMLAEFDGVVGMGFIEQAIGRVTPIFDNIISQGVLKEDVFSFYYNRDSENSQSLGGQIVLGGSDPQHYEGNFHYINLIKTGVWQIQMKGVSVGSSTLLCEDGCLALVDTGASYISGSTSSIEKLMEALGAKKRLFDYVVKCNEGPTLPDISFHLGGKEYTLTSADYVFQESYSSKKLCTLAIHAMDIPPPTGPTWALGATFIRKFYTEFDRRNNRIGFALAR
How it was run: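 Recombinant human renin (active form, residues 67-406; 3 nM final) pre-incubated 10 min at 37 °C with compounds in Hepes buffer pH 7.4 with 0.1 mg/ml BSA (optionally plus 2% BSA), 5% DMSO. Reaction started with 1 μM FRET peptide substrate; fluorescence (ex 485/em 538 nm) change over 1 h at 37 °C versus vehicle gives % inhibition, and pIC50/IC50 come from curve fitting.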

pIC50, > 6.30:
COC(=O)COc1ccc(C[C@@H]2CNCCN2C(=O)CCc2ccccc2Cc2ccccc2CCNC(C)=O)cc1 [Example 92, (R)-Methyl 2-(4-((1-(3-(2-(2-(2-acetamidoethyl)benzyl)phenyl)propanoyl)piperazin-2-yl)methyl)phenoxy)acetate]
CC(=O)NCCc1ccccc1Cc1ccccc1CCC(=O)N1CCNC[C@H]1Cc1ccc(C(=O)NS(C)(=O)=O)cc1 [Example 93, (R)-4-((1-(3-(2-(2-(2-acetamidoethyl)benzyl)phenyl)propanoyl)piperazin-2-yl)methyl)-N-(methylsulfonyl)benzamide]
CC(=O)NCCc1ccccc1Cc1ccccc1CCC(=O)N1CCNC[C@H]1Cc1ccc(-c2nnn[nH]2)cc1 [Example 94, (R)—N-(2-(2-(3-(2-(4-(1H-tetrazol-5-yl)benzyl)piperazin-1-yl)-3-oxopropyl)benzyl)phenethyl)acetamide]
